Source: US20030008015A1, “Polymer controlled delivery of a therapeutic agent” (priority 2000, published 2003)

Legend:
MBT-2 cells [1] = assay: Observation of MBT-2 cells after incubation with free paclitaxel or particles (confocal microscope); assay type: cell-based; details: 4.4×10^−5 M paclitaxel, observed on day 4
Description: Cells were also observed after incubation with free paclitaxel or particles. Cells were seeded on chambered cover-glasses (Labtek). After 1 day, free paclitaxel (4.4×10^−5 M) or particles (same concentration of paclitaxel) were added. Medium was replaced every day with free paclitaxel or medium only in the case of the particles. On day 4, cells were washed, fixed during 30 minutes with paraformaldehyde (2%) then observed with a confocal microscope (Zweiss Axiovert 100) for localization of particles.

MBT-2 cells [2] = assay: MBT-2 cell proliferation assay (MTS tetrazolium); assay type: cell-based; details: 3 days, medium with free or extracted paclitaxel replaced every day, 2.9×10^−6 M to 2.9×10^−9 M or serial dilutions
Description: MBT-2 cells in culture flasks were maintained in Dulbecco's Modified Eagles Medium, 10% fetal calf serum, 100 μg/mL penicillin and 100 μg/mL streptomycin at 37° C. in an atmosphere of 5% CO2.
For proliferation assay experiments, cells were harvested with Trypsin-EDTA and seeded (3,000 cells) on an uncoated 96-well plate (Falcon). A standard curve was established by using paclitaxel solutions that were prepared by first dissolving paclitaxel in dimethylsulfoxide (DMSO), then dilution with culture medium. Final concentration of DMSO was 0.75%. After 1 day, the culture medium was replaced by medium containing free paclitaxel, with concentrations ranging from 2.9×10^−6 M to 2.9×10^−9 M or paclitaxel extracted from a paclitaxel-loaded microparticle, with serial dilutions. […] After 3 days, cell proliferation was measured by a tetrazolium-based assay (CellTiter96, Promega). […] Formazan production, related to enzymatic cell activity, was determined at 490 rim (Biorad plate reader Model 550). Results are expressed as a percentage of growth inhibition compared to cells incubated in the same conditions with medium. Paclitaxel encapsulation was then calculated from the standard curve of growth inhibition of free paxlitaxel.
Paclitaxel-loaded microparticle activity on MBT-2 cells was also determined with no extraction process. […] After 3 days, cell proliferation was measured as described above.

[3] = system: BBN-induced bladder cancer; assay: Histologic evaluation and BrdU proliferation index of bladder sections of BBN-mice; assay type: in vivo; details: for Dysplasia (No) / HGTCC (No): number of animals; for CIS (No): number of animals with carcinoma in situ
Description: (§1) Bladder cancer was induced in female Balb-c mice (8 weeks old) with the carcinogen BBN that was given as a 0.05% solution in the drinking water during 4 weeks. Mice were then treated intravesically (50 μL) with free paclitaxel ([…]) in Tween 80 5%), loaded particles (100 μg) or unloaded particle suspensions. Schedule of administration was the following: mice received the treatment every week during 4 weeks or every other week during 4 weeks. Body weights were recorded every week for all the animals. One week after the last instillation, all the animals were killed. Bladders were removed, weighed and fixed in paraformaldehyde 10% overnight then embedded in paraffin and sectioned.
One week after the last instillation, all the animals were sacrificed and histologic evaluation was performed on haematoxilin and eosin stained sections (table 1). […] In the group treated with free paclitaxel once a week or every other week, CS was found in 5 cases (71°/b) and 7 cases (78%), respectively. On the contrary, no animal of 7 (0%) in the group treated with encapsulated paclitaxel once a week had CIS. Only 2 animals of 9 (22%) treated with particles every other week had CIS. In the groups treated with the paclitaxel, the urothelium was focally or predominantly denuded.
Proliferation index was calculated on these sections using the BrdU incroporation into proliferative cells. BrdU staining was localized in the nucleus with a fine granularity. Nuclei were considered BrdU positve if any nuclear staining was observed. The control group presented a proliferative index of 30% compared to the proliferative index of 10% in a normal urothelium. In all other groups, there was a high proliferative index, from about 35% in groups receiving encapsulated paclitaxel to 65% in groups receiving free paclitaxel.

[4] = system: BBN-induced bladder cancer; assay: Antitumor activity on BBN-induced bladder cancer: survival and body weight; assay type: in vivo; details: BBN mice
Description: as §1
The anti-cancer activity of paclitaxel encapsulated in microparticles of the invention was assayed against bladder cancer following intravesical instillation. Experimental bladder cancer was induced in female Balb/c mice with BBN, a carcinogenic compound that was added to the drinking water 4 weeks before starting the treatment we compared the same dose (100 μg) of free paclitaxel, encapsulated paclitaxel and non-loaded particles as a control (12 animals per group). Mice received the treatment either once a week or every other week for 4 weeks and number of surviving mice as well as body weight of mice were recorded every week. […]

[5] = 100 μg every other week for 4 weeks

| Compound | shape of the cells (MBT-2 cells [1]) | MBT-2 cell proliferation (MBT-2 cells [2]) | CIS (%) [3, 5] | Proliferative Index (%) ([3]; 100 μg every other week for 4 weeks, BrdU) | CIS (%) ([3]; 100 μg every other week for 4 weeks, listed as free paclitaxel) | Dysplasia (No) [3, 5] | HGTCC (No) [3, 5] | CIS (No) [3, 5] | CIS (%) ([3]; 100 μg once a week for 4 weeks) | Proliferative Index (%) ([3]; 100 μg once a week for 4 weeks, BrdU) | CIS (%) ([3]; 100 μg once a week for 4 weeks, listed as free paclitaxel) | Dysplasia (No) ([3]; 100 μg once a week for 4 weeks) | HGTCC (No) ([3]; 100 μg once a week for 4 weeks) | CIS (No) ([3]; 100 μg once a week for 4 weeks) | effect on the incidence of CIS ([3]; 100 μg, BBN induced bladder cancer) | proliferative index ([3]; BrdU, groups without stated schedule) [%] | survival rate ([4]; 100 μg intravesically every other week for 4 weeks) [%] | survival rate ([4]; 100 μg intravesically once a week for 4 weeks) [%] |
| --- | --- | --- | --- | --- | --- | --- | --- | --- | --- | --- | --- | --- | --- | --- | --- | --- | --- | --- |
| CC(=O)O[C@H]1C(=O)[C@@]2(C)[C@H]([C@H](OC(=O)c3ccccc3)[C@]3(O)C[C@H](OC(=O)[C@H](O)[C@@H](NC(=O)c4ccccc4)c4ccccc4)C(C)=C1C3(C)C)[C@]1(OC(C)=O)CO[C@@H]1C[C@@H]2O [Free paclitaxel, Paclitaxel] | modification of the shape of the cells was observed | decreased with an increased concentration | (78%) | 61 | 78 | 1 | 1 | 7 | (71%) | 65 | 71 | 0 | 1 | 5 | almost no effect | 65 | 82 | 82 |
| CC(=O)O[C@H]1C(=O)[C@@]2(C)[C@H]([C@H](OC(=O)c3ccccc3)[C@]3(O)C[C@H](OC(=O)[C@H](O)[C@@H](NC(=O)c4ccccc4)c4ccccc4)C(C)=C1C3(C)C)[C@]1(OC(C)=O)CO[C@@H]1C[C@@H]2O [paclitaxel extracted] | – | the same trend was observed | – | – | – | – | – | – | – | – | – | – | – | – | – | – | – | – |
